From PubChem BioAssay (NCI)
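Method: 48-hour compound exposure of cells in 96-well plates, five concentrations, linear interpolation of endpoints. The concentration for full growth arrest is given as TGI.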

Key:
Assay in all cases: NCI tumour cell line growth inhibition, 48 h
[1] = tested on: ACHN renal
[2] = tested on: HOP-62 NSCLC
[3] = tested on: M14 melanoma
[4] = tested on: NCI-H23 lung
[5] = tested on: OVCAR-5 ovarian
[6] = tested on: UO-31 renal
[7] = tested on: A498 renal
[8] = tested on: PC-3 prostate
[9] = tested on: KM12 colon
[10] = tested on: OVCAR-4 ovarian

SMILES	TGI [1]	TGI [2]	TGI [3]	TGI [4]	TGI [5]	TGI [6]	TGI [7]	TGI [8]	TGI [9]	TGI [10]
CC(C(=O)n1nnc2ccccc21)N(c1ccccc1)c1ccccc1 (stereo not given)	> 100 µM	> 100 µM	> 100 µM	> 100 µM	> 100 µM	> 100 µM				
COc1ccc2nc3cc(Cl)ccc3c(NCCCNCCCNc3c4ccc(Cl)cc4nc4ccc(OC)cc34)c2c1	0.174 µM	0.14 µM	0.157 µM	0.144 µM	0.237 µM	0.989 µM	0.463 µM	0.182 µM		
Cc1nn(C(=O)Cc2ccccc2)c2c1C(c1ccc(O)cc1)SC(N)=N2 (stereo not given)	> 100 µM	> 100 µM	> 100 µM	> 100 µM		> 100 µM	> 100 µM	> 100 µM	> 100 µM	
O=C(NCCCN(CCCCN(CCCNC(=O)C(F)(F)F)Cc1ccccc1)Cc1ccccc1)C(F)(F)F	30.1 µM		12.1 µM	30.9 µM	40.8 µM	17.4 µM	72.2 µM		25.9 µM	68.1 µM
CN(C)c1ccc(C=C2N=C(c3ccccc3)N(c3cc(C(=O)c4ccccc4)ccc3N3C(=O)/C(=C/c4ccc(N(C)C)cc4)N=C3c3ccccc3)C2=O)cc1	> 100 µM	> 100 µM	> 100 µM		> 100 µM	> 100 µM	> 100 µM	28.2 µM	> 100 µM	> 100 µM
CN(C)C(=S)S	> 100 µM		> 100 µM	> 93.3 µM	> 100 µM	> 100 µM	> 100 µM	> 100 µM	> 100 µM	> 100 µM
COc1cc(C2SCC(=O)N2c2ccc(NC(=O)c3ccc(N4C(=O)CSC4c4cc(OC)c(OC)c(OC)c4)cc3)cc2)cc(OC)c1OC (stereo not given)	> 100 µM	> 100 µM	> 100 µM	> 100 µM	> 100 µM	> 100 µM		> 100 µM	> 100 µM	> 100 µM
O=C1/C(=C\c2cccc(Oc3ccccc3)c2)S(=O)(=O)C(c2ccccc2)N1Cc1ccccc1 (stereo not given)	49.4 µM	> 100 µM	76.6 µM	> 100 µM	> 100 µM	47.9 µM	> 100 µM	> 100 µM	56.8 µM	
Cc1cn(C2OC(C)(CO)C(O)C2O)c(=O)[nH]c1=O (stereo not given)	> 100 µM	> 100 µM	> 100 µM	> 100 µM	> 100 µM	> 100 µM	> 100 µM		> 100 µM	> 100 µM
C=CCNC(=S)/N=C/c1c(O)c2ccccc2oc1=O	> 100 µM		> 100 µM	> 100 µM	> 100 µM	> 100 µM	> 100 µM		> 100 µM	> 100 µM
CC1(C)N=C(C(N)=O)c2ncn(CCCO)c2N1	> 100 µM	> 100 µM	> 100 µM	> 100 µM	> 100 µM		> 100 µM	> 100 µM	> 100 µM	> 100 µM
O=c1c2cc3c(cc2[nH]c2ncccc12)OCO3	> 10 µM	> 10 µM	> 10 µM	> 10 µM	> 10 µM		> 10 µM	> 10 µM	> 10 µM	> 10 µM
CCN(CC)CCOc1ccc(N2C(=O)c3cc(OC)c(OC)cc3C2=O)cc1	> 100 µM	> 100 µM	> 100 µM	> 100 µM	> 100 µM		> 100 µM	> 100 µM	> 100 µM	> 100 µM
Cc1cc(=O)c2c([nH]1)NS(=O)(=O)NC2=O		> 100 µM	> 100 µM	> 100 µM		> 100 µM	> 100 µM		> 100 µM	> 100 µM
CC(C)COP(=O)(OCC(C)C)C(NS(=O)(=O)c1ccccc1)(C(F)(F)F)C(F)(F)F	10.2 µM	35.1 µM	43.2 µM	14.2 µM	38.1 µM	7.4 µM		31.7 µM	14.4 µM	13.5 µM
C/C=C/C=C/c1nc(C#N)c(N)o1	> 100 µM	> 100 µM	> 100 µM	> 100 µM	> 100 µM	> 100 µM		> 100 µM		> 100 µM
CCOC(=O)/C=C(\C)c1ccc(C)cc1C	> 100 µM		> 100 µM	> 100 µM	> 100 µM	> 100 µM	> 100 µM		> 100 µM	> 100 µM
O=C(/C=C/c1ccsc1)c1ccsc1	42.6 µM	> 100 µM	66.4 µM	54.8 µM		28.7 µM	> 100 µM	35.6 µM	37.7 µM	> 100 µM
C=CC[C@]12C[C@@H](C(=O)OC)N(C(=O)OC)[C@H]1N(S(=O)(=O)c1ccccc1)c1ccccc12	> 100 µM	> 100 µM		> 100 µM	> 100 µM	> 100 µM	> 100 µM	> 100 µM	> 100 µM	> 100 µM
C/C(CC1C2CCCC1C2)=N\NC(N)=O (stereo not given)	> 100 µM	> 100 µM	> 100 µM	> 100 µM	> 100 µM	> 100 µM		> 100 µM	> 100 µM	> 100 µM
Cc1ccccc1C(O)(c1nccn1C)c1nccn1C	> 100 µM	> 100 µM	> 100 µM		> 100 µM	> 100 µM	> 100 µM	> 100 µM	> 100 µM	> 100 µM
N#C/C(=C\c1cc(Br)c(O)c(Br)c1)c1cccnc1	> 100 µM	97.2 µM	> 100 µM	52.8 µM	> 100 µM	58.1 µM		69.7 µM	> 100 µM	> 100 µM
CCN(C(=S)N[C@@H](Cc1ccccc1)C(=O)N[C@@H](CC(C)C)C(=O)OC)c1ccccc1	> 100 µM	> 100 µM	> 100 µM	> 100 µM	> 100 µM	> 100 µM		> 100 µM	> 100 µM	> 100 µM
O=P(c1ccccc1)(c1ccccc1)N1O[C@@H](c2ccccc2)C=C[C@H]1c1ccccc1	21.9 µM	46.5 µM	23.9 µM	25.2 µM	32.1 µM	17.3 µM		11.7 µM	44.4 µM	10.6 µM
